# Experimental data as given in patent publication US20140037685A1 (priority 2012, published 2014).
# Entries after “also recorded” stand apart in the source; their conditions may differ.
# Experiments:
# Nlrp3 [1] = test: IL-1β release into macrophage supernatants by ELISA; format: cell-based, mouse; details: for Effect of inhibitor on IL-1β secretion/release by all inducers tested: inducers alum, LLOMe, ATP, nigericin, 40 μM Boc-D-CMK or 100 μM CA-074-Me
# Description: (§1) FIG. 1A-1B. Alum and LLOMe are poor inducers of inflammasome-associated cytokines. […] Macrophages were then exposed to increasing concentrations of alum, LLOMe, ATP, or nigericin for 4 hours, or alum for 6 hours, in the presence or absence of the 40 μM Boc-D-CMK or 100 μM CA-074-Me. IL-1β release was assessed by ELISA (A), and cell death was determined by CytotoxOne LDH activity assay (B) from supernatants. All PI measurements were taken in triplicate from representative experiment. FIG. 2. Alum and LLOMe cause depletion of caspase-1 and NLR-associated cytokines. […] Lysates were probed for pro-caspase-1, IL-18, and IL-1β, and supernatants were probed for IL-1β by immunoblotting. Data is representative of 3 experiments.
# FIG. 6A-6D. LPS triggers strong production of Th1 and Th2-associated IgG subtypes. IgG1 (A) and IgG2c (B) production in C57BL/6 mice 3 weeks after subcutaneous challenge with increasing amounts of LPS. (C) A combination of LPS and ATP triggers a strong IL-1β response in vitro and in vivo. Primary C57BL/6 macrophages were treated with 250 ng/ml LPS or PBS for 2 hours, followed by to 5 mM ATP in the presence or absence of the 40 μM Boc-D-CMK. IL-1β release was assessed by ELISA from supernatants. […] IL-1β production in the intraperitoneal lavage was determined by ELISA 30 min after ATP/PBS challenge.
# Cell death assays and ELISAs. Necrosis was assessed by two methods: LDH release assays and propidium iodide (PI) exclusion. […] Fluorescence was measured using a Victor 2 plate reader from Perkin Elmer. LDH release was determined using the CytotoxOne kit from Promega, according to the manufacturer's instructions. […] The enzymatic assay was developed until signal was obtained from a positive control (300 μM hydrogen peroxide) and the reaction was stopped and measured on a Victor 2 plate reader. IL-1β Ready-Set-Go ELISA kits were purchased from eBioscience and were performed according to manufacturer's recommendations. IL-1β concentration was determined at 1:1 and 1:10 to ensure linear range. […] ELISAs were read on a Victor 2 plate reader from Perkin Elmer. […]
# [2] = test system: bone marrow-derived murine macrophages; test: Necrotic cell death (LDH release / propidium iodide exclusion) in macrophages; format: cell-based, mouse
# Description: as §1
# Cell death assays and ELISAs. Necrosis was assessed by two methods: LDH release assays and propidium iodide (PI) exclusion. PI exclusion assays were performed in a 96-well flat-bottom plate using phenol-red-free DMEM and added to wells to a final concentration 30 μM 10-min before the specified time point. Fluorescence was measured using a Victor 2 plate reader from Perkin Elmer. LDH release was determined using the CytotoxOne kit from Promega, according to the manufacturer's instructions. […] The enzymatic assay was developed until signal was obtained from a positive control (300 μM hydrogen peroxide) and the reaction was stopped and measured on a Victor 2 plate reader. IL-1β Ready-Set-Go ELISA kits were purchased from eBioscience and were performed according to manufacturer's recommendations. IL-1β concentration was determined at 1:1 and 1:10 to ensure linear range. […] ELISAs were read on a Victor 2 plate reader from Perkin Elmer.
# Lysosome-disrupting agents induce potent cell death but poor IL-1β release. […] Towards this, bone marrow-derived murine macrophages were challenged with both lysosome disrupting and pyroptosis-inducing agents and measured the amount of IL-1β and LDH released into the supernatant as complementary read-outs for Nlrp3 activation. […]
# [3] = test system: pro-caspase-1, IL-18, and IL-1β; format: cell-based, mouse
# C57BL/6 macrophages [4] = test: Increasing CA-074-Me concentrations in LLOMe- or nigericin-challenged macrophages (PI exclusion, immunoblot); format: cell-based, mouse
# macrophages = test: Confocal microscopy of lysosome rupture (fluorescent dextran) and plasma membrane integrity; format: cell-based, mouse
# Description: (§2) FIG. 5A-5C. Lysosome rupture precedes cell death by alum and LLOMe, but not pyroptosis inducers. (A) Confocal microscopy of lysosome rupture in macrophages treated with […], 2.5 mM LLOMe, or 15 μM nigericin in the absence or presence of 100 μM CA-074-Me. The cells were stained with Hoechst (blue), 20 MW FITC-Dextran (green), CellMask Orange (red), TO-PRO-3 (white). 2D-fluorescent intensity plots of FITC-dextran staining of representative cells derived from alum, LLOMe, and nigericin-treated cells. Flow cytometry analysis of LLOMe and LT-treated cells. BALB/c-derived macrophages were exposed to 2.5 mM LLOMe (B) or 500 ng/ml LT (C) and lysosome and membrane integrity were measured using LysoTracker and PI at different time points using flow cytometry.
# Cathepsin-dependent lysosome rupture correlates with degradation of inflammatory proteins. […] Lysosome-disrupting agents caused caspase-1-independent cell death and broad protein degradation, while pyroptosis inducers caused caspase-1-dependent cell death and targeted IL-1β secretion. In order to directly investigate the role of lysosome rupture in Nlrp3 activation, two complementary methods were used to analyze lysosome integrity in macrophages challenged with both lysosome-destabilizing agents and potassium-efflux inducers. First, lysosomal integrity was measured by labeling vesicles in the endolysosomal pathway with fluorescent dextran. […] Intriguingly, no plasma membrane impairment (indicative of necrotic cell death) was detectable at this time point, but was observed only 6 hours post alum exposure (FIG. 5A). […] LLOMe destabilized lysosomes within 30 min, without impairment of plasma membranes. A loss of plasma membrane integrity was observed only after 60 min of LLOMe exposure, resulting in dextran release from these cells (FIG. 5A).
# [5] = test system: BALB/c-derived macrophages; test: Flow cytometry of lysosome and membrane integrity (LysoTracker and PI); format: cell-based, mouse
# Description: as §2
# To quantify these findings, lysosomal integrity was also analyzed by flow cytometry with the lysosomal pH-indicator LysoTracker and the vital stain propidium iodide (FIG. 5B and C). […] Intriguingly, protein degradation was concurrent with a loss of lysosome integrity 30 to 45 min after LLOMe exposure, and 4-6 hours after alum exposure (FIGS. 5A and 5B).
# C57BL/6 macrophages [6] = test: 2D-DIGE of the cellular proteome of treated macrophages; format: cell-based, mouse; details: LPS-primed; 2.5 mM LLOMe or nigericin for 90 minutes
# From the text: FIG. 10. 2D-DIGE gel of proteins isolated from untreated, nigericin- and LLOMe-treated macrophages. […] Protein lysates from control, nigericin, and LLOMe treated cells were isolated, and subsequently labeled with Cy2, Cy3 and Cy5, respectively, and separated on a 2D-DIGE gel.
# Broad protein degradation mediated by LLOMe—As lysosomal proteases are highly promiscuous, it was reasoned that alum- and LL-mediated lysosomal release of proteolytic proteins may not just degrade Nlrp3-associated proteins, but may also trigger degradation of a broad range of cytosolic proteins, and might go beyond the degradation of inflammatory proteins reported here. To examine effects of LLOMe on the cellular proteome, macrophages were challenged with these compounds and generated lysates. 2D-DIGE was used to determine the extent of damage inflicted in macrophages exposed to the lysosome-disrupting agent, LLOMe. […] These findings further highlight the different impact of lysosome-destabilizing agents and pyroptosis inducers on the cellular proteome on a macro-level.
# Nlrp3 [7] = test: IL-1β and LDH in intraperitoneal lavage after i.p. challenge; format: in vivo, mouse; details: C57BL/6 mice, agent injected intraperitoneally (LPS: high concentrations), no ATP
# Description: (§3) FIG. 6A-6D. LPS triggers strong production of Th1 and Th2-associated IgG subtypes. IgG1 (A) and IgG2c (B) production in C57BL/6 mice 3 weeks after subcutaneous challenge with increasing amounts of LPS. (C) A combination of LPS and ATP triggers a strong IL-1β response in vitro and in vivo. Primary C57BL/6 macrophages were treated with 250 ng/ml LPS or PBS for 2 hours, followed by to 5 mM ATP in the presence or absence of the 40 μM Boc-D-CMK. IL-1β release was assessed by ELISA from supernatants. (D) C57BL/6 mice were i.p. primed with 1 ug LPS or PBS for 2 hours, followed by i.p. challenge with 100 mM ATP or PBS. IL-1β production in the intraperitoneal lavage was determined by ELISA 30 min after ATP/PBS challenge.
# FIG. 11. Similar in vitro and in vivo profiles of LLOMe and LPS/ATP-treated macrophages. C57BL/6 mice were i.p. primed with 1 μg LPS or PBS for 2 hours, followed by i.p. challenge with 500 μl of PBS containing 100 mM ATP, 2 mM LLOMe, or PBS only. IL-1β production and LDH activity was determined from the intraperitoneal lavage by ELISA 30 min after challenge.
# Prototypical Nlrp3 inducers trigger a strong IL-1β in vivo and production of Th1-specific antibodies in vivo. While the substantial difference in Nlrp3-signalling in vitro is shown, it was further chosen to investigate the ability of lysosome-disrupting agents and pyroptosis inducer to activate Nlrp3 in vivo. […]
# C57BL/6 mice = test: IgG1 and IgG2c production after immunization of mice; format: in vivo, mouse; details: immunized C57BL/6 mice; LPS 3 weeks after subcutaneous challenge
# Description: as §3
# It was sought to determine if this difference correlated with the observed difference in in vivo IL-1β activation. To test this hypothesis, C57BL/6 mice were immunized with alum, LLOMe, and LPS.
# [8] = LPS-primed macrophages, 40 μM Boc-D-CMK, LDH assay
molecule,measurement,setting,value
CCCNC(=O)[C@H]1O[C@@H]1C(=O)N[C@H](C(=O)N1CCC[C@H]1C(=O)OC)[C@@H](C)CC [CA-074-Me],Effect of inhibitor on IL-1β secretion/release by all inducers tested,Nlrp3 [1],blocked
same,Effect of inhibitor on necrotic cell death mediated by all agents/inducers tested,"[2]; alum, LLOMe, ATP, nigericin, 100 μM CA-074-Me",blocked necrosis
same,Effect of inhibitor on alum and LLOMe-mediated drop/degradation of proinflammatory proteins,[3],prevented the drop; also recorded: blocked
same,Effect of increasing inhibitor concentrations on cell death and drop in inflammatory proteins in LLOMe-treated macrophages,"C57BL/6 macrophages [4]; 2.5 mM LLOMe, LPS-primed","blocked both, cell death and the drop in inflammatory proteins"
same,Effect of inhibitor (at concentrations that blocked cell death) on release of processed IL-1β by Nlrp3 inducers,"C57BL/6 macrophages [4]; nigericin (and ATP), LPS-primed",prevented the release of processed IL-1β
same,Effect of inhibitor on lysosomal release of dextran from alum and LLOMe-treated macrophages,macrophages; 100 μM CA-074-Me,blocked
"COC(=O)[C@H](CC(C)C)NC(=O)[C@@H](N)CC(C)C [LLOMe, Leu-Leu-OMe]",IL-1β release,"Nlrp3 [1]; LPS-primed (250 ng/ml, 2 hours) murine macrophages challenged with the inducer, ELISA of supernatants",only minimal
same,Cellular pro-caspase-1 levels,[3],significant depletion
same,Cytosolic levels of IL-18 and IL-1β,[3],dramatic decrease
same,Mature caspase-1 (p20) indicative of caspase-1 activation,[3],No mature caspase-1 (p20)
same,Processing of pro-caspase-1 (p45) into p10 and p20,[3],substantial depletion of p45 without generating the p20 or p10 subunits
same,Release of mature IL-1β into the supernatant (immunoblot),[3],no mature IL-1β
same,Time at which loss of plasma membrane integrity was observed,macrophages; 2.5 mM LLOMe,60 min
same,"Time to destabilized lysosomes, without impairment of plasma membranes",macrophages; 2.5 mM LLOMe,≤ 30 min
same,Time to complete loss of lysosome integrity,"[5]; 2.5 mM LLOMe, LysoTracker",≤ 30 min
same,Time at which necrotic cell death was observed,"[5]; 2.5 mM LLOMe, PI",60 to 90 min
same,Time of protein degradation concurrent with loss of lysosome integrity,[5]; after LLOMe exposure,30 to 45 min
same,Degradation of cellular proteins (2D-DIGE),C57BL/6 macrophages [6],broad degradation
same,IL-1β release in vivo,Nlrp3 [7],poor release
same,LDH release in vivo,Nlrp3 [7],significant release
same,IgG1 / Th2 response,C57BL/6 mice,polarized IgG1
same,IgG2c response (Th1),C57BL/6 mice,little induction
Boc-D-CMK,Effect of inhibitor on IL-1β secretion/release by all inducers tested,Nlrp3 [1],blocked
same,Effect of inhibitor on alum and LLOMe-induced necrotic cell death,[2]; [8],no impact
same,Effect of inhibitor on cell death mediated by ATP and nigericin,[2]; [8],prevented
"CO[C@@H]1C[C@@H](C[C@H]2CC[C@H](C)[C@H]([C@@H](C)C(=O)O)O2)O[C@]2(O[C@](C)([C@H]3CC[C@@](C)([C@@H]4O[C@@H]([C@H]5O[C@@](O)(CO)[C@H](C)C[C@@H]5C)C[C@@H]4C)O3)C[C@H]2C)[C@@H]1C [nigericin, Nigericin]",Processing of pro-caspase-1 (p45) into p10 and p20,[3],minimal decrease of p45 with a notable increase of p20 or p10
same,Caspase-1 activation and Nlrp3 signaling: mature IL-1β in the supernatant,C57BL/6 macrophages [4]; LPS-primed C57BL/6 macrophages (FIG. 4B),triggered caspase-1 activation and Nlrp3 signaling
same,Timing of lysosome impairment relative to cell death,macrophages; nigericin-treated cells (FIG. 5A),occurred only after cell death induction
same,Degradation of cellular proteins (2D-DIGE),C57BL/6 macrophages [6],did not trigger any apparent degradation
